Consider 17 compounds from patent US10124065B2, “Lipids and lipid compositions for the delivery of active agents” (Novartis AG, priority 2013, dated 2018).

Test [1] concerns respiratory syncytial virus F protein. Briefly: Immunization studies, anti-RSV-F titers. Format: in vivo. The note with it: anti-RSV-F titer, BALB/c, liposomes with 0.1 μg vA317 replicon (naked: 1 μg); for 2wp1 pool 1 / 2wp1 pool 2: 2 weeks after first dose; for 2wp2 pool 1 / 2wp2 pool 2: 2 weeks after second dose; for 4wp2 pool 1 / 4wp2 pool 2: 4 weeks after second dose. On the procedure:
BALB/c were immunized with liposomes comprising DSPC, cholesterol, and various lipids of the invention (or, for comparison, the cationic lipid 1,2-dilinoleyloxy-N,N-dimethyl-3-aminopropane or ‘DLinDMA’). The liposomes encapsulated 0.1 μg of “vA317” self-replicating RNA replicon which encodes respiratory syncytial virus F protein (see WO2012/031043). […] Doses were given either on days 0 & 21 or days 0 & 42. Immune responses were assessed 2 weeks after each dose (2wp1, 2wp2), and in some cases also at 4 weeks after the second dose (4wp2).
For orientation: A replicon is a self-replicating genome or part of one, used to study replication in cells.

Test [2] has as its system plasma Factor VII enzyme activity. In words: Mouse Factor VII dosing / Factor VII Activity Assay. The format is in vivo. The note with it: percent knock down of plasma Factor VII activity, CD-1 mice, 48 h; for KD FVII 0.03 mg/kg: single IV dose 0.03 mg/kg. On the procedure: Female CD-1 mice were received from Harlan Labs and maintained on standard lab chow and water ad libitum. The animals weighed approximately 25 grams at time of dosing. Formulated Factor VII siRNA was administered as a single dose intravenously via the lateral tail vein. Approximately 48 hours after injection, the mice were euthanized by CO2 inhalation followed by exsanguination through the vena cava. […] Plasma collected from injected mice was assayed for Factor VII enzyme activity using the Biophen FVII kit from Hyphen Biomedical (catalog number 221304). An assay standard curve was prepared using pooled plasma aliquots from the vehicle control animals. All samples were diluted to fall within the linear range of the standard curve and Factor VII activity relative to control plasma was reported. Lipid nanoparticles comprising lipid compounds of formula (I) and the FVII siRNA duplex sequence listed above were tested in the Factor VII Activity Assay. The results of this assay are given in Table 4 below as a percent knock down of plasma Factor VII enzyme activity at a dose of 0.3 mg/kg and 0.03 mg/kg.

Several values for one entry are separate records, joined by “and”; a condition that tells them apart may be missing. Equal values may be shown once.

Take `CCCCC/C=C\C/C=C\CCCCCCCC(=O)OCc1cc(COC(=O)CCCCCCC/C=C\C/C=C\CCCCC)cc(COC(=O)OCCN(C)C)c1` [Example 70, (9Z,9′Z,12Z,12′Z)-(5-((((2-(dimethylamino)ethoxy)carbonyl)oxy)methyl)-1,3-phenylene)bis(methylene)bis(octadeca-9,12-dienoate)]: in test [1] (course A = days 0 & 21), the “2wp1 pool 1” value is listed as 1416, the “2wp1 pool 2” value came to 3110, the “2wp2 pool 1” value worked out at 31550 and the “2wp2 pool 2” value worked out at 20124. Also, in test [1] (course A = days 0 & 21), the “4wp2 pool 1” value came out at 18779 and the “4wp2 pool 2” value stood at 18358.
As for `CCCCCCCCCCCCCC(=O)OCCCCOc1cc(CN(C)C)cc(OCCCCOC(=O)CCCCCCCCCCCCC)c1` [Example 61, ((5-((dimethylamino)methyl)-1,3-phenylene)bis(oxy))bis(butane-4,1-diyl)ditetradecanoate], in test [2] (LNP Chol/DSPC/S010 45/44/9/2), the “KD FVII 0.03 mg/kg” value was 0%.
Same read-out and setting: under `CCCCCCCC(=O)OC[C@H](CCOc1cc(CN(C)C)cc(OCC[C@@H](COC(=O)CCCCCCC)OC(=O)CCCCCCC)c1)OC(=O)CCCCCCC` [Example 93, (S)-4-(3-((S)-3,4-bis(octanoyloxy)butoxy)-5-((dimethylamino)methyl)phenoxy)butane-1,2-diyldioctanoate] stands 89.71%.
Take `CCCCC/C=C\C/C=C\CCCCCCCCOc1cc(COC(=O)CCCN(C)C)cc(OCCCCCCCC/C=C\C/C=C\CCCCC)c1` [Example 13, 3,5-bis((9Z,12Z)-octadeca-9,12-dien-1-yloxy)benzyl 4-(dimethylamino)butanoate]: in test [1] (course A = days 0 & 21), the “2wp1 pool 1” value is reported as 495, the “2wp1 pool 2” value amounted to 620, the “2wp2 pool 1” value is given as 7157 and the “2wp2 pool 2” value was determined as 12316.
`CCCCC/C=C\C/C=C\CCCCCCCC(=O)OCc1cc(COC(=O)CCCCCCC/C=C\C/C=C\CCCCC)cc(COC(=O)CCN(C)C)c1` [Example 29, (9Z,9′Z,12Z,12′Z)-(5-(((3-(dimethylamino)propanoyl)oxy)methyl)-1,3-phenylene)bis(methylene)bis(octadeca-9,12-dienoate)]: in test [1] (course A = days 0 & 21), the “2wp1 pool 1” value turned out to be 2101, the “2wp1 pool 2” value was 3584, the “2wp2 pool 1” value was 12529 and the “2wp2 pool 2” value is reported as 18669. In addition, in test [1] (course A = days 0 & 21), the “4wp2 pool 1” value is on record as 23930 and the “4wp2 pool 2” value is 37278.
On to `CCCCC/C=C\C/C=C\CCCCCCCC(=O)OCCCCOc1cc(CN2CCCC2)cc(OCCCCOC(=O)CCCCCCC/C=C\C/C=C\CCCCC)c1` [Ex. 112, (9Z,9′Z,12Z,12′Z)-((5-(pyrrolidin-1-ylmethyl)-1,3-phenylene)bis(oxy))bis(butane-4,1-diyl)bis(octadeca-9,12-dienoate)], for which the “KD FVII 0.03 mg/kg” value in test [2] (LNP Chol/DSPC/PEG-DMG 45/44/9/2) was 86%.
For `CCCCC/C=C\C/C=C\CCCCCCCCOc1cc(C(=O)OCCCN(C)C)cc(OCCCCCCCC/C=C\C/C=C\CCCCC)n1` [Example 25, 3-(dimethylamino)propyl 2,6-bis((9Z,12Z)-octadeca-9,12-dien-1-yloxy)isonicotinate], in test [1] (course A = days 0 & 21), the “2wp1 pool 1” value is given as 1217, the “2wp1 pool 2” value is 1883, the “2wp2 pool 1” value was 1611 and the “2wp2 pool 2” value is given as 1156. In addition, in test [1] (course A = days 0 & 21), the “4wp2 pool 1” value is listed as 2850 and the “4wp2 pool 2” value worked out at 1767.
Turning to `CCCCC/C=C\C/C=C\CCCCCCCC(=O)OCCOc1cc(CN(C)C)cc(OCCOC(=O)CCCCCCC/C=C\C/C=C\CCCCC)c1` [Example 40, (9Z,9′Z, 12Z, 12′Z)-((5-((dimethylamino)methyl)-1,3-phenylene)bis(oxy))bis(ethane-2,1-diyl)bis(octadeca-9,12-dienoate)], the “KD FVII 0.03 mg/kg” value in test [2] (LNP Chol/DSPC/S010 45/44/9/2) is 8.2%. The “KD FVII 0.3 mg/kg” value in test [2] (single IV dose 0.3 mg/kg, LNP Chol/DSPC/PEG-DMG 45/44/9/2) stood at 89.8%.
Take `CCCCC/C=C\C/C=C\CCCCCCCC(=O)OCc1cc(COC(=O)CCCCCCC/C=C\C/C=C\CCCCC)cc(COC(=O)OCCCN(CC)CC)c1` [Example 69, (9Z,9′Z,12Z,12′Z)-(5-((((3-(diethylamino)propoxy)carbonyl)oxy)methyl)-1,3-phenylene)bis(methylene)bis(octadeca-9,12-dienoate)]: in test [1] (course A = days 0 & 21), the “2wp1 pool 1” value was 2853, the “2wp1 pool 2” value was found to be 4481, the “2wp2 pool 1” value came to 23851 and the “2wp2 pool 2” value came to 20793. Besides, in test [1] (course A = days 0 & 21), the “4wp2 pool 1” value is on record as 19075 and the “4wp2 pool 2” value was found to be 21504.
Turning to `CCCCC/C=C\C/C=C\CCCCCCCCOc1cc(COC(=O)OCCCN(C)C)cc(OCCCCCCCC/C=C\C/C=C\CCCCC)c1` [Example 68, 3,5-bis((9Z,12Z)-octadeca-9,12-dien-1-yloxy)benzyl (3-(dimethylamino)propyl) carbonate], in test [1] (course A = days 0 & 21), the “2wp1 pool 1” value was 1031, the “2wp1 pool 2” value is given as 494, the “2wp2 pool 1” value is 11315 and the “2wp2 pool 2” value came to 7800. In test [1] (course A = days 0 & 21), the “4wp2 pool 1” value came to 12963 and the “4wp2 pool 2” value is on record as 17734.
As for `CCCCCCCC/C=C\CCCCCCCC(=O)OCCCCOc1cc(CN(C)C)cc(OCCCCOC(=O)CCCCCCC/C=C\CCCCCCCC)c1` [Example 60, (Z)-((5-((dimethylamino)methyl)-1,3-phenylene)bis(oxy))bis(butane-4,1-diyl)dioleate], the “KD FVII 0.03 mg/kg” value in test [2] (LNP Chol/DSPC/S010 45/44/9/2) worked out at 49.75%.
As to `CC/C=C\C/C=C\C/C=C\CCCCCCCC(=O)OCCCCOc1cc(CN(C)C)cc(OCCCCOC(=O)CCCCCCC/C=C\C/C=C\C/C=C\CC)c1` [Example 62, (9Z,9′Z,12Z,12′Z,15Z,15′Z)-((5-((dimethylamino)methyl)-1,3-phenylene)bis(oxy))bis(butane-4,1-diyl)bis(octadeca-9,12,15-trienoate)], the “KD FVII 0.03 mg/kg” value in test [2] (LNP Chol/DSPC/S010 45/44/9/2) is given as 85.8%.
Take `CCCCC/C=C\C/C=C\CCCCCCCCNC(=O)c1cc(COC(=O)CCCN(C)C)cc(C(=O)NCCCCCCCC/C=C\C/C=C\CCCCC)c1` [Example 66, 3,5-bis((9Z,12Z)-octadeca-9,12-dien-1-ylcarbamoyl)benzyl 4-(dimethylamino)butanoate]: in test [1] (course A = days 0 & 21), the “2wp1 pool 1” value is given as 75, the “2wp1 pool 2” value was determined as 75, the “2wp2 pool 1” value came out at 75 and the “2wp2 pool 2” value is reported as 75. In test [1] (course A = days 0 & 21), the “4wp2 pool 1” value is given as 75 and the “4wp2 pool 2” value is on record as 75.
As for `CCCCC/C=C\C/C=C\CCCCCCCCOc1cc(CCCOC(=O)CCN(C)C)cc(OCCCCCCCC/C=C\C/C=C\CCCCC)c1` [Example 81, 3-(3,5-bis((9Z,12Z)-octadeca-9,12-dien-1-yloxy)phenyl)propyl 3-(dimethylamino)propanoate], in test [1] (course A = days 0 & 21), the “2wp1 pool 1” value came to 1779, the “2wp1 pool 2” value came out at 1553, the “2wp2 pool 1” value is listed as 24648 and the “2wp2 pool 2” value worked out at 15304. Besides, in test [1] (course A = days 0 & 21), the “4wp2 pool 1” value is recorded as 41921 and the “4wp2 pool 2” value is 34684.
Consider `CCCCC/C=C\C/C=C\CCCCCCCCOCC(CN(C)C)OCCCCCCCC/C=C\C/C=C\CCCCC` (centres unmarked) [DLinDMA, 1,2-dilinoleyloxy-N,N-dimethyl-3-aminopropane, reference compound], for which, in test [1] (course A = days 0 & 21), the “4wp2 pool 1” value was 26504 and 50799; the “4wp2 pool 2” value was 28008 and 35992. For the same compound, in test [1] (course B = days 0 & 42), the “2wp1 pool 1” value is on record as 13, the “2wp1 pool 2” value worked out at 4, the “2wp2 pool 1” value is on record as 18290 and the “2wp2 pool 2” value came to 5538. In addition, in test [1] (course B = days 0 & 42), the “4wp2 pool 1” value was found to be 13936 and the “4wp2 pool 2” value is 7020.
On to `CCCCCCCC/C=C\CCCCCCCCOc1cc(OCCCCCCCC/C=C\CCCCCCCC)cc(C2OCC(COC(=O)CN(C)C)O2)c1` (centres unmarked) [Example 12, (2-(3,5-bis((Z)-octadec-9-en-1-yloxy)phenyl)-1,3-dioxolan-4-yl)methyl 2-(dimethylamino)acetate], for which, in test [1] (course B = days 0 & 42), the “2wp1 pool 1” value is listed as 88, the “2wp1 pool 2” value came out at 128, the “2wp2 pool 1” value came out at 4550 and the “2wp2 pool 2” value is 4828. Besides, in test [1] (course B = days 0 & 42), the “4wp2 pool 1” value is on record as 4787 and the “4wp2 pool 2” value was determined as 3972.
For the compound `CCCCCCCC/C=C\CCCCCCCCOc1cc(OCCCCCCCC/C=C\CCCCCCCC)cc(C2OCC(CN3CCCC3)O2)c1` (centres unmarked) [Example 9, 1-((2-(3,5-bis((Z)-octadec-9-en-1-yloxy)phenyl)-1,3-dioxolan-4-yl)methyl)pyrrolidine], in test [1] (course A = days 0 & 21), the “2wp1 pool 1” value stood at 1832, the “2wp1 pool 2” value is reported as 1352, the “2wp2 pool 1” value came out at 29707 and the “2wp2 pool 2” value stood at 18788.
